{"source": "ChEMBL document CHEMBL3739395", "about": "“Discovery and optimisation of 1-acyl-2-benzylpyrrolidines as potent dual orexin receptor antagonists” (Medchemcomm, 2015)", "key": {"[1]": {"test": "Drug uptake in Wistar rat cerebrospinal fluid at 100 mg/kg, po measured 3 hrs post dose", "type": "ADME, organism-based", "conditions": "read-out: Drug uptake"}, "[2]": {"target": "T1, Orexin/Hypocretin receptor type 1 (Rattus norvegicus) (UniProt P56718)", "T1 sequence (whole entry)": "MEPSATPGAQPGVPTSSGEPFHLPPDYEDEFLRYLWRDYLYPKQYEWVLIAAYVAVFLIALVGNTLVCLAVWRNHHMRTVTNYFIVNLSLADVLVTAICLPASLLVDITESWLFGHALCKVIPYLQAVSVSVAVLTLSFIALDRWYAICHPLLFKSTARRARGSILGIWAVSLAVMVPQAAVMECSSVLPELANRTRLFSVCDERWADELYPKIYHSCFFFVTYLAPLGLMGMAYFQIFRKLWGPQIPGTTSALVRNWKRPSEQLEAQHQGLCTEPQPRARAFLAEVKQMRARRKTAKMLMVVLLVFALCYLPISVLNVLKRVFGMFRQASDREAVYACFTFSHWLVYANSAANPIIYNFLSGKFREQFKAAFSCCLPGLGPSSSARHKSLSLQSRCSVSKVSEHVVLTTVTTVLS", "test": "Insurmountable antagonist activity against rat orexin-1 receptor expressed in CHO cells assessed as calcium release at IC50 preincubated for 120 mins followed by addition of orexin-A by Cheng-Prusoff equation analysis", "type": "functional, cell-based"}, "[3]": {"target": "T2, Orexin receptor type 2 (Rattus norvegicus) (UniProt P56719)", "T2 sequence (whole entry)": "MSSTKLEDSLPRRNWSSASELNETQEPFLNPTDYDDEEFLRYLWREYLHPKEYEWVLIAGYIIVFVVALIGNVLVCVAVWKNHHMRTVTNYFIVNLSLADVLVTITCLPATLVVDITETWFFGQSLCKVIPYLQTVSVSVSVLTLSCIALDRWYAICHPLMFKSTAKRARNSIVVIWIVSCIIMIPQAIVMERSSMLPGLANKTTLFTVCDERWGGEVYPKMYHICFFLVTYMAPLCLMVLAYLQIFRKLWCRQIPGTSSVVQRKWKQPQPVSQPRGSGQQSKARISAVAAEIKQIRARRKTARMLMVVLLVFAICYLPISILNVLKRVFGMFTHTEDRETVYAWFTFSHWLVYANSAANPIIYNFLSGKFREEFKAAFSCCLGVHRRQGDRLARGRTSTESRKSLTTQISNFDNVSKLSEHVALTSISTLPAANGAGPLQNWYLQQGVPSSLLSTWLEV", "test": "Insurmountable antagonist activity against rat orexin-2 receptor expressed in CHO cells assessed as calcium release at IC50 preincubated for 120 mins followed by addition of orexin-A by Cheng-Prusoff equation analysis", "type": "functional, cell-based"}, "[4]": {"test": "Fraction unbound in rat plasma", "type": "ADME, cell-free"}, "[5]": {"test": "Fraction unbound in rat brain", "type": "ADME, tissue-based"}, "[6]": {"test": "Ratio of drug level in brain to plasma of rat", "type": "ADME", "conditions": "brain and plasma, read-out: BPR"}, "[7]": {"system": "Brain", "test": "Free drug level in rat brain", "type": "ADME, tissue-based", "conditions": "in vivo"}, "[8]": {"target": "T3, Orexin receptor type 2 (Homo sapiens, UniProt O43614)", "T3 sequence (O43614 whole entry)": "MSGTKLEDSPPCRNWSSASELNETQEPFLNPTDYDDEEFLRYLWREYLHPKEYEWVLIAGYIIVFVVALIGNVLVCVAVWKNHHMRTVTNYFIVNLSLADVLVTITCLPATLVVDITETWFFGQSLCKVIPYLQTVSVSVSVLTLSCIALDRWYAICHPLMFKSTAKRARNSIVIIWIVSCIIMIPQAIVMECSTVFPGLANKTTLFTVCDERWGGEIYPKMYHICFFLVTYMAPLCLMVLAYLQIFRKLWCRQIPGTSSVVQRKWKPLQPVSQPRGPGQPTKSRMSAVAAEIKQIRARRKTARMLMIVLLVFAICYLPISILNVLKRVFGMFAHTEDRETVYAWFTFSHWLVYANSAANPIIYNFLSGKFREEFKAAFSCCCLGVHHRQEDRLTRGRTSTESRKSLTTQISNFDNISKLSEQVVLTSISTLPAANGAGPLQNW", "test": "Inhibition of human orexin-2 receptor expressed in CHO cells assessed as calcium release preincubated for 120 mins followed by addition of orexin-A by fluo-4 AM based-FLIPR analysis", "type": "functional, cell-based"}, "[9]": {"test": "Intrinsic clearance in human liver microsomes at 1 uM", "type": "ADME", "conditions": "read-out: CLH"}, "[10]": {"test": "Intrinsic clearance in rat liver microsomes at 1 uM", "type": "ADME", "conditions": "read-out: CLH"}, "[11]": {"target": "T4, Orexin/Hypocretin receptor type 1 (Homo sapiens, UniProt O43613)", "T4 sequence (O43613 whole entry)": "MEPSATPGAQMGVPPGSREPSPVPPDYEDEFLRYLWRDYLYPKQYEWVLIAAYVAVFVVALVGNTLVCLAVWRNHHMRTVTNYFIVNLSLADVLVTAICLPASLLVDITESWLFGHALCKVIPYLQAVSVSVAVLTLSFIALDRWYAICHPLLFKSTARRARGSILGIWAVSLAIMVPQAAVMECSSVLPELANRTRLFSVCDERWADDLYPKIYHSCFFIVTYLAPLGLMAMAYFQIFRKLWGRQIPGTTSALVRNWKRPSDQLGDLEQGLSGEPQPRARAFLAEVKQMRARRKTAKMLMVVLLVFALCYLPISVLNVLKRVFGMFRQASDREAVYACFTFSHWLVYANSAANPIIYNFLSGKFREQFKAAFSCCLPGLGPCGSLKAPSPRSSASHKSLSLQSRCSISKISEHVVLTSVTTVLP", "test": "Inhibition of human orexin-1 receptor expressed in CHO cells assessed as calcium release preincubated for 120 mins followed by addition of orexin-A by fluo-4 AM based-FLIPR analysis", "type": "functional, cell-based"}, "[12]": {"target": "T5, Orexin/Hypocretin receptor type 1 (Homo sapiens) (UniProt O43613)", "T5 sequence (whole entry)": "T4 sequence (O43613 whole entry)", "test": "Insurmountable antagonist activity against human orexin-1 receptor expressed in CHO cells assessed as calcium release at IC50 preincubated for 120 mins followed by addition of orexin-A by Cheng-Prusoff equation analysis", "type": "functional, cell-based"}, "[13]": {"target": "T6, Orexin receptor type 2 (Homo sapiens) (UniProt O43614)", "T6 sequence (whole entry)": "T3 sequence (O43614 whole entry)", "test": "Insurmountable antagonist activity against human orexin-2 receptor expressed in CHO cells assessed as calcium release at IC50 preincubated for 120 mins followed by addition of orexin-A by Cheng-Prusoff equation analysis", "type": "functional, cell-based"}, "[14]": {"target": "T5, Orexin/Hypocretin receptor type 1 (Homo sapiens)", "test": "Competitive antagonist activity against human orexin-1 receptor expressed in CHO cells assessed as shift in orexin-A CRC at IC50 incubated for 120 mins in presence of orexin-A by Cheng-Prusoff equation analysis", "type": "cell-based"}, "[15]": {"target": "T6, Orexin receptor type 2 (Homo sapiens)", "test": "Competitive antagonist activity against human orexin-2 receptor expressed in CHO cells assessed as shift in orexin-A CRC at IC50 incubated for 120 mins in presence of orexin-A by Cheng-Prusoff equation analysis", "type": "cell-based"}, "[16]": {"system": "Rattus norvegicus", "test": "Reduction in home cage activity in Wistar rat sleep model at 100 mg/kg, po administered as single dose during first 6 hrs of night active period post dose relative to vehicle control", "type": "functional", "set-up": "scale not given: the % may be the effect or the level left"}, "[17]": {"system": "Rattus norvegicus", "test": "Sleep promoting effect in Wistar rat sleep model at 100 mg/kg, po administered as single dose during first 6 hrs of night active period post dose relative to vehicle control", "type": "functional, organism-based"}, "[18]": {"target": "T5, Orexin/Hypocretin receptor type 1 (Homo sapiens)", "test": "Inhibition of human orexin-1 receptor expressed in CHO cells assessed as time duration for Kb change preincubated for 120 mins followed by stimulation with orexin-A post compound washout by FLIPR assay", "type": "cell-based"}, "[19]": {"target": "T6, Orexin receptor type 2 (Homo sapiens)", "test": "Inhibition of human orexin-2 receptor expressed in CHO cells assessed as time duration for Kb change preincubated for 120 mins followed by stimulation with orexin-A post compound washout by FLIPR assay", "type": "cell-based"}, "[20]": {"system": "Rattus norvegicus", "test": "Reduction in time spent in active wake state in Wistar rat sleep model at 100 mg/kg, po administered as single dose during first 6 hrs of night active period post dose relative to vehicle control", "type": "functional", "set-up": "scale not given: the % may be the effect or the level left"}, "[21]": {"system": "Rattus norvegicus", "test": "Increase in time spent in quiet wake state in Wistar rat sleep model at 100 mg/kg, po administered as single dose during first 6 hrs of night active period post dose relative to vehicle control", "type": "functional"}, "[22]": {"system": "Rattus norvegicus", "test": "Increase in time spent in non-rapid eye movement sleep in Wistar rat sleep model at 100 mg/kg, po administered as single dose during first 6 hrs of night active period post dose relative to vehicle control", "type": "functional"}, "[23]": {"system": "Rattus norvegicus", "test": "Increase in time spent in rapid eye movement sleep in Wistar rat sleep model at 100 mg/kg, po administered as single dose during first 6 hrs of night active period post dose relative to vehicle control", "type": "functional"}, "[24]": {"target": "T5, Orexin/Hypocretin receptor type 1 (Homo sapiens)", "conditions": "CHO", "description": "Inhibition of human orexin-1 receptor expressed in CHO cells assessed as occupancy half life preincubated for 120 mins followed by stimulation with orexin-A post compound washout measured at 0 to 30 mins by FLIPR assay"}, "[25]": {"target": "T6, Orexin receptor type 2 (Homo sapiens)", "conditions": "CHO", "description": "Inhibition of human orexin-2 receptor expressed in CHO cells assessed as occupancy half life preincubated for 120 mins followed by stimulation with orexin-A post compound washout measured at 0 to 30 mins by FLIPR assay"}}, "note": "Activity calls are given as the source filed them. No cut-off for these calls is given here.", "data": [{"smiles": "COc1ccc(C[C@@H]2CCCN2C(=O)c2nc(C)sc2-c2ccc3c(c2)OCO3)cc1OC", "values": [{"measurement": "concentration at 3 h", "setting": "[1]", "value": 133, "unit": "ng/mL"}, {"measurement": "Kb", "setting": "[2]", "value": 7.3, "unit": "nM"}, {"measurement": "Kb", "setting": "[3]", "value": 1.7, "unit": "nM"}, {"measurement": "fraction unbound", "setting": "[4]", "value": 0.027}, {"measurement": "fraction unbound", "setting": "[5]", "value": 0.04}, {"measurement": "Kp", "setting": "[6]", "value": 0.68}, {"measurement": "Drug uptake(free)", "setting": "[7]", "value": 60, "unit": "nM"}, {"measurement": "IC50", "setting": "[8]", "value": 6.6, "unit": "nM"}, {"measurement": "microsomal CLint at 1 µM", "setting": "[9]", "value": 197, "unit": "µL/min/mg"}, {"measurement": "microsomal CLint at 1 µM", "setting": "[10]", "value": "> 1250", "unit": "µL/min/mg"}, {"measurement": "IC50", "setting": "[11]", "value": 11, "unit": "nM"}, {"measurement": "Kb", "setting": "[12]", "value": 5.3, "unit": "nM"}, {"measurement": "Kb", "setting": "[13]", "value": 1.4, "unit": "nM"}, {"measurement": "inhibition", "setting": "[14]", "value": "Active"}, {"measurement": "inhibition", "setting": "[15]", "value": "Active"}, {"measurement": "Activity", "setting": "[16]", "value": 47, "unit": "%"}, {"measurement": "Activity", "setting": "[17]", "value": "Active"}, {"measurement": "TIME", "setting": "[18]", "value": 0.0833, "unit": "h"}, {"measurement": "TIME", "setting": "[19]", "value": 0.333, "unit": "h"}, {"measurement": "Activity", "setting": "[20]", "value": -29, "unit": "%"}, {"measurement": "Activity", "setting": "[21]", "value": 17, "unit": "%"}, {"measurement": "Activity", "setting": "[22]", "value": 18, "unit": "%"}, {"measurement": "Activity", "setting": "[23]", "value": 84, "unit": "%"}, {"measurement": "T1/2", "setting": "[24]", "value": 1.1, "unit": "min"}, {"measurement": "T1/2", "setting": "[25]", "value": 5.4, "unit": "min"}]}]}
